Measurements as given in ChEMBL document CHEMBL1146060, “Guanidinylated 2,5-dideoxystreptamine derivatives as anthrax lethal factor inhibitors” (Bioorg Med Chem Lett, 2006).

target: T1, Lethal factor (Bacillus anthracis, UniProt P15917); assay: Inhibition of Bacillus anthracis LF by FRET assay; conditions: read-out: Ki app
T1 sequence (P15917 whole entry): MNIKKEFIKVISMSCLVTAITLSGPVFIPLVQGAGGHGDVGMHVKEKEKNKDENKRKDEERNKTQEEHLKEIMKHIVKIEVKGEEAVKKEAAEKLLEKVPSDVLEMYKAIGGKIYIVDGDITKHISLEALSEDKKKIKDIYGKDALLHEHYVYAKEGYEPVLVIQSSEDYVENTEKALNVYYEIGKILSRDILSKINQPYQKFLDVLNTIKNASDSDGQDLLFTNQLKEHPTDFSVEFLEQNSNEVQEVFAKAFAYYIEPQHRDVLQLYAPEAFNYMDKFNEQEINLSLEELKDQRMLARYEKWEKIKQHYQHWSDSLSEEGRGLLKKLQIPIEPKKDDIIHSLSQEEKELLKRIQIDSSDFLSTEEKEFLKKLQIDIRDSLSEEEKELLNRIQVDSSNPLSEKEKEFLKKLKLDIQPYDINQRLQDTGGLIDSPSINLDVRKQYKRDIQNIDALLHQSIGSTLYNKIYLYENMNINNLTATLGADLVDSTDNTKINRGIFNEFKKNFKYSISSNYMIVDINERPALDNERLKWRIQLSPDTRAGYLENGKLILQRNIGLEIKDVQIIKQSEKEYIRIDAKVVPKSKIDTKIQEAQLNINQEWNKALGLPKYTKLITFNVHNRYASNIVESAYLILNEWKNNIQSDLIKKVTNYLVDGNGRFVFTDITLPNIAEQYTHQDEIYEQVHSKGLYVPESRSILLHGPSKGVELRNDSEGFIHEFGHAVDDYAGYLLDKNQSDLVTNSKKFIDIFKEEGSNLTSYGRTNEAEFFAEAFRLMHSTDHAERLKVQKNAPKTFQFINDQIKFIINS

| SMILES | Ki |
| --- | --- |
| N=C(N)Nc1ccc([C@H]2C[C@@H](O)[C@H](NC(=N)N)C[C@@H]2NC(=N)N)nc1 | 6.6 µM |
| N=C(N)Nc1ccc([C@H]2C[C@@H](O)[C@H](NC(=N)N)C[C@@H]2NC(=N)N)cc1 | 14.9 µM |
| N=C(N)Nc1ccc([C@H]2C[C@@H](O)[C@H](NC(=N)N)C[C@@H]2NC(=N)N)c2ccccc12 | 31.4 µM |
| N=C(N)Nc1ccc(O[C@H]2C[C@@H](Oc3ccc(NC(=N)N)cc3NC(=N)N)[C@H](NC(=N)N)C[C@@H]2NC(=N)N)c(NC(=N)N)c1 | 0.065 µM |
| N=C(N)Nc1ccccc1[C@H]1C[C@@H](O)[C@H](NC(=N)N)C[C@@H]1NC(=N)N | 30.6 µM |
| N=C(N)Nc1ccc([C@H]2C[C@@H](O)[C@H](NC(=N)N)C[C@@H]2NC(=N)N)c(NC(=N)N)c1 | 0.6 µM |
| N=C(N)Nc1cc(NC(=N)N)c2ccccc2c1[C@H]1C[C@@H](O)[C@H](NC(=N)N)C[C@@H]1NC(=N)N | 10.7 µM |
| Cc1cc(NC(=O)O[C@@H]2C[C@H](Oc3ccc(NC(=N)N)cc3N=C(N)N)[C@@H](N=C(N)N)C[C@H]2N=C(N)N)ccc1F | 0.5 µM |
| N=C(N)N[C@H]1C[C@@H](NC(=N)N)[C@H](O)C[C@@H]1c1ccc2[nH]c(N)nc2c1 | 154 µM |
| N=C(N)Nc1cccnc1[C@H]1C[C@@H](O)[C@H](NC(=N)N)C[C@@H]1NC(=N)N | 4.1 µM |
| N=C(N)Nc1ccccc1NC(=O)O[C@H]1C[C@@H](O)[C@H](NC(=N)N)C[C@@H]1NC(=N)N | 24.8 µM |
